The values below come from paper PMC6830242, “In vitro inhibition of Mycobacterium tuberculosis β-carbonic anhydrase 3 with Mono- and dithiocarbamates and evaluation of their toxicity using zebrafish developing embryos” (Journal of Enzyme Inhibition and Medicinal Chemistry, 2019).

Bounds are passed on as bounds.

T1 sequence (P96878 555-764 limits assumed): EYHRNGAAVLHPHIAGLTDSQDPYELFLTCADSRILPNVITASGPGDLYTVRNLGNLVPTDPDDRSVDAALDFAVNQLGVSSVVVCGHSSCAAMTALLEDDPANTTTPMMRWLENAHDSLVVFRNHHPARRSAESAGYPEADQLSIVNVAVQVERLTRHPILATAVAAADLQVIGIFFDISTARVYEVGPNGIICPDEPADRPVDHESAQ

The experiment concerns the target T1, Mtb β-CA3 (Mycobacterium tuberculosis, UniProt P96878).
T1 construct: gene Rv3273
In words: stopped-flow CO2 hydrase assay. It is filed as biochemical. The source says: stopped-flow CO2 hydrase assay on Mtb β-CA3
As to `S=C(S)N1CCOCC1` [compound 9, morpholine DTC 9], the affinity, expressed as Ki, was 2.4 nM.

`O=C(CN1CCN(C(=S)S)CC1)NC1CCCCC1` [compound 11, DTC 11] displayed a Ki of more than 2000 nM. As to `CCCN(CCC)C(=O)S` [compound 1, 1], the Ki was determined as 559 nM. That is a sub-micromolar value. As for `O=C(S)NCCc1ccccc1` [compound 5, phenylethyl 5], the figure is 93 nM. `O=C(S)N1CCOCC1` [compound 2, MTC based morpholine 2] displayed a Ki of 748 nM. As for `O=C(S)N1CCN(C(=O)S)CC1` [compound 3, 3], the figure is 812 nM; as for `CC(C)CN(CC(C)C)C(=S)S` [compound 8, DTC 8], 43 nM.

`COc1ccc(CCNC(=O)S)cc1OC` [compound 7, 3,4-dimethoxyphenylethyl derivative 7]: the Ki amounted to 97.9 nM. To `S=C(S)N1CCN(C(=S)S)CC1` [compound 10, bis-piperazine derivative DTC 10] belongs 8 nM; to `O=C(CN1CCN(C(=O)S)CC1)NC1CCCCC1` [compound 6, 6], 781 nM.

Usually Ki stands for a dissociation constant, usually derived from enzyme kinetics or from competition with a known ligand. Low readings indicate a stronger hold on the target, high ones a looser hold on the target.
